This note sets out measurements from patent US9758537B2 (Achillion Pharmaceuticals, Inc., priority 2014, dated 2017).

As a reminder, the IC50 is the concentration needed to halve the response being measured. Read a high IC50 as weaker potency in that assay.

Sequence of Human factor D (P00746 26-253): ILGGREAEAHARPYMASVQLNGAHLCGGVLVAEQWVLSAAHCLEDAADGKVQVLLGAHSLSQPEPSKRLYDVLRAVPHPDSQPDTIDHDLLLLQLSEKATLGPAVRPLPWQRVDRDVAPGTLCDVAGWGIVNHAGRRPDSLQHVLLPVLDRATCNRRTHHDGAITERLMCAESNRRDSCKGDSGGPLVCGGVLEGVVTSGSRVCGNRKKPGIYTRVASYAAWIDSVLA

The target of the test is Human factor D (Homo sapiens (Human), UniProt P00746). In words: Human Factor D Assay. It is filed as biochemical. The settings on record: human factor D 80 nM, substrate Z-L-Lys-SBzl, DTNB, OD405. The procedure:
Human factor D (purified from human serum, Complement Technology, Inc.) at 80 nM final concentration is incubated with test compound at various concentrations for 5 minutes at room temperature in 50 mM Tris, 1M NaCl, pH 7.5. A synthetic substrate Z-L-Lys-SBzl and DTNB (Ellman's reagent) are added to final concentrations of 10 μM each. The increase in color is recorded at OD405 nm in a microplate in kinetic mode over 30 minutes with 30 second time points in a […]. IC50 values are calculated by non-linear regression from the percentage of inhibition of complement factor D activity as a function of test compound concentration.
`CC(=O)c1cn(CC(=O)N2[C@H](C(=O)NCc3cccc(Cl)c3F)C[C@@H]3CCCC[C@@H]32)c2ccccc12` [Compound 1, (2S,3aS,7aS)-1-(2-(3-acetyl-1H-indol-1-yl)acetyl)-N-(3-chloro-2-fluorobenzyl)octahydro-1H-indole-2-carboxamide] yielded an IC50 of less than 1 µM.

`CC(=O)n1cc(NC(=O)[C@@H]2C[C@@H](F)CN2C(=O)NCc2cccc(Cl)c2F)c2ccccc21` [Compound 3, (2S,4R)-N2-(1-acetyl-1H-indol-3-yl)-N1-(3-chloro-2-fluorobenzyl)-4-fluoropyrrolidine-1,2-dicarboxamide]: the IC50 was more than 10 µM.

For `CC(=O)n1cc(NC(=O)[C@@H]2C[C@H](F)CN2C(=O)NCc2cccc(Cl)c2F)c2ccccc21` [Compound 4, (2S,4S)-N2-(1-acetyl-1H-indol-3-yl)-N1-(3-chloro-2-fluorobenzyl)-4-fluoropyrrolidine-1,2-dicarboxamide], the IC50 is more than 10 µM.

The compound `CC(=O)n1cc(NC(=O)[C@@H]2C[C@H](F)CN2C(=O)NCc2ccccc2)c2ccccc21` [Compound 5, (2S,4S)-N2-(1-acetyl-1H-indol-3-yl)-N1-benzyl-4-fluoropyrrolidine-1,2-dicarboxamide] displayed an IC50 of more than 10 µM.

In the case of `NC(=O)n1cc(NC(=O)N2C[C@H](F)C[C@H]2C(=O)NS(=O)(=O)c2cccc(Cl)c2F)c2ccccc21` [Compound 6, (2S,4R)-N1-(1-carbamoyl-1H-indol-3-yl)-N2-(3-chloro-2-fluorophenylsulfonyl)-4-fluoropyrrolidine-1,2-dicarboxamide], the IC50 is more than 10 µM.

In the case of `CC(=O)n1cc(NC(=O)N2C[C@H](F)C[C@H]2C(=O)NS(=O)(=O)c2cccc(Cl)c2F)c2ccccc21` [Compound 7, (2S,4R)-N1-(1-acetyl-1H-indol-3-yl)-N2-(3-chloro-2-fluorophenylsulfonyl) - 4-fluoropyrrolidine-1,2-dicarboxamide], the IC50 is more than 10 µM.

Regarding `CC(=O)n1cc(NC(=O)[C@H]2CC(F)(F)CN2C(=O)NCc2cccc(Cl)c2F)c2ccccc21` [Compound 8, (R)-N2-(1-acetyl-1H-indol-3-yl)-N1-(3-chloro-2-fluorobenzyl)-4,4-difluoropyrrolidine-1,2-dicarboxamide], the IC50 is more than 10 µM.

Take `CC(=O)n1cc(NC(=O)[C@H]2CCCN2C(=O)NCc2cccc(Cl)c2F)c2ccccc21` [Compound 9, (R)-N2-(1-acetyl-1H-indol-3-yl)-N1-(3-chloro-2-fluorobenzyl) pyrrolidine-1,2-dicarboxamide]: the IC50 is more than 10 µM.

Consider `CC(=O)c1cn(CC(=O)N2C[C@H](F)C[C@H]2c2ncc(-c3cccc(Cl)c3)[nH]2)c2ccccc12` [Compound 11, 2-(3-acetyl-1H-indol-1-yl)-1-((2S,4R)-2-(5-(3-chlorophenyl)-1H-imidazol-2-yl)-4-fluoropyrrolidin-1-yl)ethanone], for which the IC50 is more than 10 µM.

In the case of `CC(=O)c1cn(CC(=O)N2C[C@H](F)C[C@H]2c2nc3cc(Cl)ccc3[nH]2)c2ccccc12` [Compound 15, 2-(3-acetyl-1H-indol-1-yl)-1-((2S,4R)-2-(5-chloro-1H-benzo[d]imidazol-2-yl)-4-fluoropyrrolidin-1-yl)ethanone], the IC50 was more than 10 µM.

`CC(=O)n1cc(NC(=O)[C@H]2CCCN2C(=O)Nc2cccc(OC(F)(F)F)c2F)c2ccccc21` [Compound 16, (R)-N2-(1-acetyl-1H-indol-3-yl)-N1-(2-fluoro-3-(trifluoromethoxy)phenyl)pyrrolidine-1,2-dicarboxamide]: the IC50 is more than 10 µM.

`CC(=O)n1cc(NC(=O)[C@H]2CC(F)(F)CN2C(=O)Cc2cccc(Cl)c2F)c2ccccc21` [Compound 17, (R)-N-(1-acetyl-1H-indol-3-yl)-1-(2-(3-chloro-2-fluorophenyl)acetyl)-4,4-difluoropyrrolidine-2-carboxamide] gave an IC50 of more than 10 µM.

As for `CC(=O)c1cn(CC(=O)N2CC[C@@H](OCC3CC3)[C@H]2C(=O)NCc2cccc(Cl)c2F)c2ccccc12` [Compound 18, (2S,3R)-1-(2-(3-acetyl-1H-indol-1-yl)acetyl)-N-(3-chloro-2-fluorobenzyl)-3-(cyclopropylmethoxy) pyrrolidine-2-carboxamide], the IC50 is less than 1 µM.

The compound `COc1ccc2c(O[C@@H]3C[C@@H](C(=O)NCc4cccc(Cl)c4F)N(C(=O)Nc4cn(C(C)=O)c5ccccc45)C3)cc(-c3ccccc3)nc2c1` [Compound 19, (2S,4R)-N1-(1-acetyl-1H-indol-3-yl)-N2-(3-chloro-2-fluorobenzyl)-4-(7-methoxy-2-phenylquinolin-4-yloxy)pyrrolidine-1,2-dicarboxamide] gave an IC50 of more than 10 µM.

Take `CC(=O)n1cc(NC(=O)Nc2cn(C(C)=O)c3ccccc23)c2ccccc21` [Compound 20, 1,3-bis(1-acetyl-1H-indol-3-yl)urea]: the IC50 was more than 10 µM.

With `CC(=O)c1cn(CC(=O)N2C[C@H](F)[C@@H](OCC3CC3)[C@H]2C(=O)NCc2cccc(Cl)c2F)c2cc(O)ccc12` [Compound 21, (2S,3S,4S)-1-(2-(3-acetyl-6-hydroxy-1H-indol-1-yl)acetyl)-N-(3-chloro-2-fluorobenzyl)-3-(cyclopropylmethoxy)-4-fluoropyrrolidine-2-carboxamide], the IC50 is less than 1 µM.

In turn, `O=C(c1cn(CC(=O)N2[C@@H]3C[C@@H]3C[C@H]2C(=O)NCc2cccc(Cl)c2F)c2ccccc12)C1CC1` [Compound 22, (1R,3S,5R)-N-(3-chloro-2-fluorobenzyl)-2-(2-(3-(cyclopropanecarbonyl)-1H-indol-1-yl)acetyl)-2-azabicyclo[3.1.0]hexane-3-carboxamide] registered an IC50 of less than 1 µM.

`O=C(c1cn(CC(=O)N2C[C@H](F)C[C@H]2C(=O)NCc2cccc(Cl)c2F)c2ccccc12)C1CC1` [Compound 24, (2S,4R)-N-(3-chloro-2-fluorobenzyl)-1-(2-(3-(cyclopropanecarbonyl)-1H-indol-1-yl)acetyl)-4-fluoropyrrolidine-2-carboxamide] registered an IC50 of less than 1 µM.

On to `CC(=O)c1cn(CC(=O)N2CC(F)C(OCC3CC3)[C@H]2C(=O)NCc2cccc(Cl)c2F)c2cc(O)ccc12` (stereo partly drawn) [Compound 25, (2S)-1-(2-(3-acetyl-6-hydroxy-1H-indol-1-yl)acetyl)-N-(3-chloro-2-fluorobenzyl)-3-(cyclopropylmethoxy)-4-fluoropyrrolidine-2-carboxamide], for which the IC50 is less than 1 µM.

For the compound `NC(=O)N1CC(NC(=O)[C@@H]2CCC[C@H]2C(=O)NCc2cccc(Cl)c2F)c2ccccc21` (stereo partly drawn) [Compound 26, (1R,2R)-N1-(1-carbamoylindolin-3-yl)-N2-(3-chloro-2-fluorobenzyl)cyclopentane-1,2-dicarboxamide], the IC50 is more than 10 µM.

`CC(=O)c1cn(CC(=O)N2C[C@H](F)C[C@H]2Cn2cc(-c3ccc(F)cc3)nn2)c2ccccc12` [Compound 27, 2-(3-acetyl-1H-indol-1-yl)-1-((2S,4R)-4-fluoro-2-((4-(4-fluorophenyl)-1H-1,2,3-triazol-1-yl)methyl)pyrrolidin-1-yl)ethanone] returned an IC50 of more than 10 µM.

`NC(=O)n1cc(NC(=O)N2C[C@H](F)C[C@H]2Cn2cc(-c3ccc(F)cc3)nn2)c2ccccc21` [Compound 28, 3-((2S,4R)-4-fluoro-2-((4-(4-fluorophenyl)-1H-1,2,3-triazol-1-yl)methyl)pyrrolidine-1-carboxamido)-1H-indole-1-carboxamide] came in with an IC50 of more than 10 µM.
